Assay results reported in patent US9314540B2, “Compounds for use in imaging, diagnosing and/or treatment of diseases of the central nervous system” (PIRAMAL IMAGING SA, priority 2010, dated 2016).

Legend:
[1] = Plasma radioactivity and metabolite profile over time in cynomolgus monkey plasma; type: in vivo
Excerpt: D2 Deprenyl and non-deuterated [^18F] Deprenyl in cynomolgus monkey plasma.
D2 Deprenyl and (b) non-deuterated [^18F] Deprenyl in cynomolgus monkey plasma. The time course of the parent compounds as well as metabolites expressed in [area %] generated from respective HPLC chromatograms are shown.
Plasma radioactivity metabolic profiles have been monitored over time for [^18F] D2 Deprenyl compared to the non-deuterated [^18F] Deprenyl in cynomolgus monkey plasma (FIG. 3). […] D2 Deprenyl in plasma the radioactivity for [^18F] D2 Deprenyl was 18% and 31% higher as observed for [^18F] Deprenyl at the 30 and 60 min time points, respectively (FIG. 3). In addition, metabolites occurring in cynomolgus monkey plasma over time have been monitored for both ligands (FIG. 4). […] Deprenyl. Specifically metabolite M1 was less produced (FIG. 4a). In addition, time activity curves (TAC) of [^18F] […] This gives more flexibility regarding quantification of the PET data and is, thus, an advantage.

[2] = Biodistribution in NMRI mice, brain radioactivity by gamma counter; type: in vivo; settings: for brain uptake of radioactivity (peak): 2 min p.i.
Procedure: FIG. 1: Distribution of [^18F] D2 Deprenyl (compound of Example 3) detected via a gamma-detector is shown in a time frame of 4 hours in mouse brains (n=3).
Biodistribution of [^18F] D2 Deprenyl (compound of Example 3) was investigated in NMRI mice weighing 31.1-38.5 g at seven time points. For each time point 3 mice were used. The mice were injected each with 0.256 MBq [^18F] D2 Deprenyl. After the respective time points the mice were sacrificed, the organs taken out and measured in a gamma counter. The results were decay corrected. […] Unexpectedly, the elimination ratio defined by peak uptake at 2 min to uptake at 30 min was 4.2 times. This is improved over the non-deuterated compound where said ratio was 3.6 (Peak: 7.5±0.04% ID/g at 2 min p.i. and 2.10±0.33% ID/g at 30 min p.i.) and will add to a better brain image quality. Therefore, an improved diagnostic performance can be expected.

MAO-A = molecular target: T1, MAO-A (Homo sapiens, UniProt P21397); assay: Amplex Red Monoamine Oxidase Assay-Kit, MAO-A affinity; type: biochemical; settings: read-out: affinity towards MAO-A
T1 sequence (P21397 1-527): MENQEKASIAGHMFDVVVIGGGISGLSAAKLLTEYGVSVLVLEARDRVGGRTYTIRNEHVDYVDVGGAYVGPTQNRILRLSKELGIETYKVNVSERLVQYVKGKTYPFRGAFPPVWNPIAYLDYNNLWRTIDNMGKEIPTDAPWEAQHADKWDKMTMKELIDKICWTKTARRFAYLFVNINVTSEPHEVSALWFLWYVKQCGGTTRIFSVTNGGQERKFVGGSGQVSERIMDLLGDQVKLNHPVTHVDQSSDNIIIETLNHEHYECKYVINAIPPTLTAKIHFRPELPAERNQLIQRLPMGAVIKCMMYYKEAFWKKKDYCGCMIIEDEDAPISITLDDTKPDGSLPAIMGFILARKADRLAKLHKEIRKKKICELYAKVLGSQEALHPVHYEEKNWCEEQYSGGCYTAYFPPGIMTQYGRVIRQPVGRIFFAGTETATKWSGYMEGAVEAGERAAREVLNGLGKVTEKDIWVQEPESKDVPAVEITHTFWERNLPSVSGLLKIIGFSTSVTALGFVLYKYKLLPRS

human MAO-B = molecular target: T2, human MAO-B (Homo sapiens, UniProt P27338); assay: Amplex Red Monoamine Oxidase Assay-Kit, MAO-B affinity; type: biochemical; settings: human MAO-B from baculovirus-infected insect cells; read-out: affinity towards MAO-B, IC50
T2 construct: purchased Sigma; host or cells: insect cells infected with recombinant baculovirus
T2 sequence (P27338 1-520): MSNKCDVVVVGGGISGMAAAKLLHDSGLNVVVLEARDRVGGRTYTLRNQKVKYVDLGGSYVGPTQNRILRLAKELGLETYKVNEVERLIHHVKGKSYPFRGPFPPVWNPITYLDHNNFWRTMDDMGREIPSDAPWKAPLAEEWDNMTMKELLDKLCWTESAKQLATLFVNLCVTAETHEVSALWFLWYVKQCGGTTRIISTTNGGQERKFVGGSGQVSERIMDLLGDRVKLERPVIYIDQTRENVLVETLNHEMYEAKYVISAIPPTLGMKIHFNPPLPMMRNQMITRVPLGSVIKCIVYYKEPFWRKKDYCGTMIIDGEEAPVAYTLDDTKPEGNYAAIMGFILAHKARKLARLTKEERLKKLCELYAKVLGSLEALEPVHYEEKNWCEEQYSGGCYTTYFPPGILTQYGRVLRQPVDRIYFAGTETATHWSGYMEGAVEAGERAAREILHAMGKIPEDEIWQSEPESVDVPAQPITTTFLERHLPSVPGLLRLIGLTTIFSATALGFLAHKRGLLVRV
Procedure: [^19F] […] This was determined by incubating human MAO-B prepared from insect cells infected with recombinant baculovirus containing respective cDNA inserts (Sigma) with respective reagents of the Amplex Red Monoamine Oxidase Assay-Kit (Molecular Probes).

[3] = In vitro metabolite profile in liver microsomes and hepatocytes (LC/MS); type: in vitro ADME, rat, mouse and human; settings: for oxidation at the propargyl moiety (M-7) as additional metabolic pathway: microsome and hepatocyte incubations; for major metabolic pathway: rat, mouse and human liver microsomes, human and rat hepatocytes
Excerpt: FIG. 9: In vitro metabolite pathways in rat, mouse, dog, monkey and human microsomes and rat and human heaptocyte preparations. The metabolites were detected by LC/MS. (a) Metabolite pathways of non-deuterated [^18F] Deprenyl and (b) Metabolite pathways of [^18F] D2 Deprenyl.
[^18F] D2 Deprenyl and [^19F] D2 Deprenyl have been investigated regarding their metabolic properties in vitro and in vivo. […] D2 Deprenyl (FIG. 9).

Row | Structure (SMILES) | formation of metabolite M1 compared to non-deuterated [18F] Deprenyl [1] | stability in plasma compared to non-deuterated [18F] Deprenyl [1] | plasma radioactivity higher than for [18F] Deprenyl ([1]; 30 min) [%] | plasma radioactivity higher than for [18F] Deprenyl ([1]; 60 min) [%] | elimination ratio, peak uptake at 2 min to uptake at 30 min [2] | brain uptake of radioactivity (peak) [2] [% ID/g] | brain radioactivity ([2]; 30 min p.i.) [% ID/g] | brain radioactivity ([2]; 4 hours p.i.) [% ID/g] | IC50 (MAO-A) [nM] | IC50 (human MAO-B) [nM] | oxidation at the propargyl moiety (M-7) as additional metabolic pathway [3] | major metabolic pathway [3]
1 | [2H]C([2H])(C#C)N(C)[C@H](CF)Cc1ccccc1 [[^18F] D2 Deprenyl, N-[(2S)-1-[^18F]fluoro-3-phenylpropan-2-yl]-N-methyl(1,1-^2H2)— prop-2-yn-1-amine] | less produced | more stable | 18 | 31 | 4.2 | 6.03±1.09 | 1.44±0.15 | 0.91±0.09 | – | – | – | –
2 | [2H]C([2H])(C#C)N(C)[C@H](CF)Cc1ccccc1 [[^19F] D2 Deprenyl, N-[(2S)-1-fluoro-3-phenylpropan-2-yl]-N-methyl(1,1-^2H)prop-2-yn-1-amine] | – | – | – | – | – | – | – | – | > 2000 | 41.3 | not detectable any more | N-dealkylation
3 | C#CCN(C)[C@H](C[18F])Cc1ccccc1 [non-deuterated compound, reference compound] | – | – | – | – | 3.6 | 7.5±0.04 | 2.10±0.33 | – | – | – | observed | N-dealkylation
